Test results reported in patent US12285407B2, “Bis-indolylmethane derivatives and uses thereof” (The University of The West Indies, priority 2018, dated 2025).
Read-outs that look alike come from different tables or passages of the source.

Columns and labels:
Streptococcus pneumoniae [1] = assay: Adjuvant broth microdilution (antibiotic MIC with SP-BIM at 50 μg/mL); type: cell-based; settings: Streptococcus pneumoniae; Streptococcus pneumonia; antibiotic alone; Table 5; read-out: MIC of antibiotic, No compound
Escherichia coli [2] = assay: Checkerboard synergy (FICI) of antibiotics with SP-BIM; set-up: MIC SP-BIM 13 only / MIC in combination: Antibiotic: unit not given beside the values; settings: for MIC: 24 h
Candida albicans = assay: as above; set-up: MIC SP-BIM 13 only / MIC in combination: Antibiotic / MIC antibiotic only: unit not given beside the values
Staphylococcus aureus = assay: as above; type: cell-based; settings: Staphylococcus aureus, Staphylococcus aureus; for MIC: 24 h, antibiotic alone, read-out: MIC antibiotic only
Klebsiella pneumoniae = assay: as above; type: cell-based; settings: for MIC: 24 h, antibiotic alone, read-out: MIC antibiotic only
Escherichia coli O157:H7 = type: cell-based; settings: antibiotic alone, no SP-BIM
Escherichia coli [3] = assay: microbe, parasite or virus in culture; type: cell-based; settings: antibiotic alone, Table 6, read-out: MIC of antibiotic, No compound
Enterococcus faecium = assay: Checkerboard synergy (FICI) of antibiotics with SP-BIM; type: cell-based; settings: Enterococcus faecium, Enterococcus faecium; for MIC: 24 h, antibiotic alone, read-out: MIC antibiotic only
[4] = system: clinical strains of Enterococcus faecium; assay: Kirby Bauer disc diffusion susceptibility profile; type: cell-based; settings: for Zone of clearance: 35° C., 24 hours, average n=3; for Interpretive standard (resistant/susceptible): zones vs EUCAST breakpoints (Table 31)
Streptococcus pneumoniae [5] = assay: Checkerboard synergy (FICI) of antibiotics with SP-BIM; type: cell-based; settings: for MIC: 24 h, antibiotic alone, read-out: MIC antibiotic only
Bacillus cereus = assay: as above; type: cell-based; settings: for MIC: 24 h, antibiotic alone, read-out: MIC antibiotic only
clinical strains of MRSA = assay: Kirby Bauer disc diffusion susceptibility profile; type: cell-based, Staphylococcus aureus; settings: for Zone of clearance: 35° C., 24 hours, average n=3; for Interpretive standard (resistant/susceptible): zones vs EUCAST breakpoints (Table 30)
[6] = MIC of the antibiotic in combination with SP-BIM 13
[7] = SP-BIM 9 in combination with the labelled antibiotic
[8] = SP-BIM 13 in combination with the labelled antibiotic
[9] = antibiotic in combination with SP-BIM 9
[10] = antibiotic in combination with SP-BIM 13
[11] = Streptococcus pneumonia (title: Streptococcus pyogenes), antibiotic + SP-BIM 9
[12] = Streptococcus pneumoniae, antibiotic + SP-BIM 13

Q: Which results are given for `CC1(C)S[C@@H]2[C@H](NC(=O)[C@H](N)c3ccccc3)C(=O)N2[C@H]1C(=O)O` [Ampicillin, ampicillin]?
A: MIC (Streptococcus pneumoniae [1]): 0.5 µg/mL; MIC (Escherichia coli [2]; read-out: MIC antibiotic only, Escherichia coli, antibiotic alone): > 250 µg/mL; MIC (Escherichia coli [2]; read-out: MIC antibiotic only, Escherichia coli, antibiotic alone, SP-BIM 9 checkerboard): 250 µg/mL; MIC in combination: Antibiotic (Escherichia coli [2]; [6]): 4; FIC of SP-BIM 9 (Escherichia coli [2]; [7]): 0.064; FIC of SP-BIM 13 (Escherichia coli [2]; [8]): 0.5; Interpretation (Escherichia coli [2]; antibiotic + SP-BIM 9): Synergy (Synergy: FICI≤0.5); Σ FIC (Escherichia coli [2]; antibiotic + SP-BIM 9): <0.1; Interpretation (Escherichia coli [2]; antibiotic + SP-BIM 13): Synergy (Synergy: FICI≤0.5); Σ FIC (Escherichia coli [2]; antibiotic + SP-BIM 13): <0.5; MIC in combination, Antibiotic (Escherichia coli [2]; [9]): 4 µg/mL; FIC of antibiotic (Escherichia coli [2]; combination with SP-BIM 13): 0.0; FIC of antibiotic (Escherichia coli [2]; in combination with SP-BIM 9): 0.016; MIC (Candida albicans; 24 h, read-out: MIC antibiotic only): > 250 µg/mL; MIC in combination: Antibiotic (Candida albicans; [6]): 0.5; FIC of SP-BIM 13 (Candida albicans; [8]): 0.5; Interpretation (Candida albicans; antibiotic + SP-BIM 13): Synergy (Synergy: FICI≤0.5); Σ FIC (Candida albicans; antibiotic + SP-BIM 13): <0.5; FIC of antibiotic (Candida albicans; combination with SP-BIM 13): 0.0; MIC (Staphylococcus aureus; SP-BIM 9 checkerboard): 0.5 µg/mL; MIC (Staphylococcus aureus; SP-BIM 13 checkerboard): 0.5 µg/mL; FIC of SP-BIM 9 (Staphylococcus aureus; [7]): 0.50; FIC of SP-BIM 13 (Staphylococcus aureus; [8]): 0.0; Interpretation (Staphylococcus aureus; antibiotic + SP-BIM 9): Additive (Additive: FICI>0.5-1.0); Σ FIC (Staphylococcus aureus; antibiotic + SP-BIM 9): <0.90; Interpretation (Staphylococcus aureus; antibiotic + SP-BIM 13): Additive (Additive: FICI>0.5-1.0); Σ FIC (Staphylococcus aureus; antibiotic + SP-BIM 13): 1.0; MIC in combination, Antibiotic (Staphylococcus aureus; [9]): 0.2 µg/mL; MIC in combination, Antibiotic (Staphylococcus aureus; [10]): 0.5 µg/mL; FIC of antibiotic (Staphylococcus aureus; in combination with SP-BIM 9): 0.40; FIC of antibiotic (Staphylococcus aureus; in combination with SP-BIM 13): 1.0; MIC (Klebsiella pneumoniae; SP-BIM 9 checkerboard): 250 µg/mL; MIC (Klebsiella pneumoniae; SP-BIM 13 checkerboard): 250 µg/mL; FIC of SP-BIM 9 (Klebsiella pneumoniae; [7]): 1; FIC of SP-BIM 13 (Klebsiella pneumoniae; [8]): 0.3; Interpretation (Klebsiella pneumoniae; antibiotic + SP-BIM 9): Synergy (Synergy: FICI≤0.5); Σ FIC (Klebsiella pneumoniae; antibiotic + SP-BIM 9): <1.0; Interpretation (Klebsiella pneumoniae; antibiotic + SP-BIM 13): Indifferent (Indifferent: FICI>1.0-4.0); Σ FIC (Klebsiella pneumoniae; antibiotic + SP-BIM 13): <1.3; MIC in combination, Antibiotic (Klebsiella pneumoniae; [9]): 2 µg/mL; MIC in combination, Antibiotic (Klebsiella pneumoniae; [10]): 250 µg/mL; FIC of antibiotic (Klebsiella pneumoniae; in combination with SP-BIM 9): 0.008; FIC of antibiotic (Klebsiella pneumoniae; in combination with SP-BIM 13): 1.0; MIC of antibiotic, No Compound (Escherichia coli O157:H7): 8 µg/mL; MIC (Escherichia coli [3]): 63 µg/mL; MIC (Enterococcus faecium; SP-BIM 9 checkerboard): 250 µg/mL; MIC (Enterococcus faecium; SP-BIM 13 checkerboard): 250 µg/mL; MIC in combination, SP-BIM 9 (Enterococcus faecium; SP-BIM 9 concentration in combination with the labelled antibiotic): 64 µg/mL; FIC of SP-BIM 9 (Enterococcus faecium; [7]): 0.3; FIC of SP-BIM 13 (Enterococcus faecium; [8]): 0.5; Interpretation (Enterococcus faecium; antibiotic + SP-BIM 9): Synergy (Synergy: FICI≤0.5); Σ FIC (Enterococcus faecium; antibiotic + SP-BIM 9): ≤0.3; Interpretation (Enterococcus faecium; antibiotic + SP-BIM 13): Additive (Additive: FICI>0.5-1.0); Σ FIC (Enterococcus faecium; antibiotic + SP-BIM 13): <0.6; MIC in combination, Antibiotic (Enterococcus faecium; [9]): 0.1 µg/mL; MIC in combination, Antibiotic (Enterococcus faecium; [10]): 16 µg/mL; FIC of antibiotic (Enterococcus faecium; in combination with SP-BIM 9): 0.0; FIC of antibiotic (Enterococcus faecium; in combination with SP-BIM 13): 0.1; Zone of clearance ([4]; E. faecium strain 15134): 37 mm; Interpretive standard (resistant/susceptible) ([4]; E. faecium strain 15134): S; Zone of clearance ([4]; E. faecium strain 21024): 32 mm; Interpretive standard (resistant/susceptible) ([4]; E. faecium strain 21024): S; Zone of clearance ([4]; E. faecium strain 21955): 32 mm; Interpretive standard (resistant/susceptible) ([4]; E. faecium strain 21955): S; Zone of clearance ([4]; E. faecium strain 22003): 37 mm; Interpretive standard (resistant/susceptible) ([4]; E. faecium strain 22003): S; Zone of clearance ([4]; E. faecium strain 22870): 10 mm; Interpretive standard (resistant/susceptible) ([4]; E. faecium strain 22870): R; Zone of clearance ([4]; E. faecium strain 23227): 26 mm; Interpretive standard (resistant/susceptible) ([4]; E. faecium strain 23227): S; Zone of clearance ([4]; E. faecium strain 23230): 36 mm; Interpretive standard (resistant/susceptible) ([4]; E. faecium strain 23230): S; Zone of clearance ([4]; E. faecium strain 23668): 39 mm; Interpretive standard (resistant/susceptible) ([4]; E. faecium strain 23668): S; Zone of clearance ([4]; E. faecium strain 24169): 33 mm; Interpretive standard (resistant/susceptible) ([4]; E. faecium strain 24169): S; Zone of clearance ([4]; E. faecium strain RC63): 12 mm; Interpretive standard (resistant/susceptible) ([4]; E. faecium strain RC63): R; FIC of SP-BIM 9 (Streptococcus pneumoniae [5]; Streptococcus pneumonia (title: Streptococcus pyogenes), SP-BIM 9 in combination with the labelled antibiotic): 0.06; Interpretation (Streptococcus pneumoniae [5]; [11]): Synergy (Synergy: FICI≤0.5); Σ FIC (Streptococcus pneumoniae [5]; [11]): <0.06; MIC in combination, Antibiotic (Streptococcus pneumoniae [5]; Streptococcus pneumonia (title: Streptococcus pyogenes), antibiotic in combination with SP-BIM 9): 0.1 µg/mL; FIC of antibiotic (Streptococcus pneumoniae [5]; Streptococcus pneumonia (title: Streptococcus pyogenes), in combination with SP-BIM 9): 0.00; MIC (Streptococcus pneumoniae [5]; Streptococcus pneumoniae, Streptococcus pneumonia (title: Streptococcus pyogenes), SP-BIM 9 checkerboard): > 250 µg/mL; MIC (Streptococcus pneumoniae [5]; Streptococcus pneumoniae, Streptococcus pneumoniae, SP-BIM 13 checkerboard): 250 µg/mL; FIC of SP-BIM 13 (Streptococcus pneumoniae [5]; Streptococcus pneumoniae, SP-BIM 13 in combination with the labelled antibiotic): 0.3; Interpretation (Streptococcus pneumoniae [5]; [12]): Synergy (Synergy: FICI≤0.5); Σ FIC (Streptococcus pneumoniae [5]; [12]): <0.3; MIC in combination, Antibiotic (Streptococcus pneumoniae [5]; Streptococcus pneumoniae, antibiotic in combination with SP-BIM 13): 2 µg/mL; FIC of antibiotic (Streptococcus pneumoniae [5]; Streptococcus pneumoniae, in combination with SP-BIM 13): 0.0; MIC (Bacillus cereus; SP-BIM 9 checkerboard): 8 µg/mL; MIC (Bacillus cereus; SP-BIM 13 checkerboard): 8 µg/mL; FIC of SP-BIM 13 (Bacillus cereus; [8]): 0.3; Interpretation (Bacillus cereus; antibiotic + SP-BIM 13): Synergy (Synergy: FICI≤0.5); Σ FIC (Bacillus cereus; antibiotic + SP-BIM 13): 0.3; MIC in combination, Antibiotic (Bacillus cereus; [10]): 0.5 µg/mL; FIC of antibiotic (Bacillus cereus; in combination with SP-BIM 13): 0.06; Zone of clearance (clinical strains of MRSA; MRSA strain 1594): 13.0 mm; Interpretive standard (resistant/susceptible) (clinical strains of MRSA; MRSA strain 1594): R; Interpretive standard (resistant/susceptible) (clinical strains of MRSA; MRSA strain 1621): R; Zone of clearance (clinical strains of MRSA; MRSA strain 5455): 14.5 mm; Interpretive standard (resistant/susceptible) (clinical strains of MRSA; MRSA strain 5455): R; Zone of clearance (clinical strains of MRSA; MRSA strain 5872): 9.0 mm; Interpretive standard (resistant/susceptible) (clinical strains of MRSA; MRSA strain 5872): R; Zone of clearance (clinical strains of MRSA; MRSA strain 7153): 13.5 mm; Interpretive standard (resistant/susceptible) (clinical strains of MRSA; MRSA strain 7153): R; Zone of clearance (clinical strains of MRSA; MRSA strain 7172): 14.5 mm; Interpretive standard (resistant/susceptible) (clinical strains of MRSA; MRSA strain 7172): R; Zone of clearance (clinical strains of MRSA; MRSA strain 7698): 10.5 mm; Interpretive standard (resistant/susceptible) (clinical strains of MRSA; MRSA strain 7698): R; Zone of clearance (clinical strains of MRSA; MRSA strain 10132): 14.0 mm; Interpretive standard (resistant/susceptible) (clinical strains of MRSA; MRSA strain 10132): R
